pIC50: −log10 of the molar value. Several values for one entry are separate records, joined by “and”; a condition that tells them apart may be missing. Equal values may be shown once. Where a name gives a salt, the structure may show the parent alone.
Molecular target: T1, purified γ-secretase (Homo sapiens, UniProt P49768+Q92542)
T1 construct: made in house
Test: cell-free in vitro C100-Flag γ-secretase assay with purified enzyme
Format: biochemical
Description: The density of the AICD-Flag and Aβ total bands was quantified by Odyssey software (Supplementary data Fig. S5). […] The residue was then separated by Bicine/urea SDS-PAGE, together with an Aβ standard of synthetic human Aβ38, Aβ40 and Aβ42, followed by Western blot detection with anti-Aβ antibody (6E10, left panel), or quantification by ELISA (right panel). Black bars, Aβ [1–40]; gray bars, Aβ[1–42]. Data were presented as the means ± sd. […] The change in response units over time is shown. […]
γ-Secretase was purified from S-20 cells as described previously. The recombinant APP-based protein substrate of γ-secretase, namely human C100-Flag, was overexpressed in E. coli and purified by using an anti-Flag M2 resin[31]. Full length human NCT was purified as described previously (for details, see Supplementary information)[32].
Cell-free in vitro γ-secretase assays using the recombinant C100-Flag substrate and purified γ-secretase were performed as described in the Supplementary information.
Aβ1-x peptides secreted in the cell media were quantitatively measured by ELISA (IBL, Gunma, Japan) according to the standard protocol from the manufacturer. Aβ40 and Aβ42 generated in the C100-Flag γ-secretase assays stopped with 0.5% SDS (final concentration) were quantified with the human Beta Amyloid or [1–42] colorimetric ELISA kit, respectively. […]
γ-Secretase activity assays
γ-Secretase purified from S-20 cells was solubilized in 0.2% (w/v) CHAPSO in 50 mM HEPES buffer (pH 7.0) containing of 150 mM NaCl, 5 mM MgCl2 and 5 mM CaCl2, and incubated with 0.1% (w/v) PC and 1 μM or otherwise indicated […]
concentrations of substrate at 37 °C for 4 h, after which the enzymatic reactions were stopped by adding 0.5% SDS (final concentration). The samples were analyzed by Western Blot for AICD-Flag or Aβ. […]

CC(C)[C@@]1(NC(=O)[C@@H]2C[C@@H]3c4cccc5[nH]cc(c45)C[C@H]3N(C)C2)O[C@@]2(O)[C@@H]3CCCN3C(=O)[C@H](Cc3ccccc3)N2C1=O [DHEC, Dihydroergocristine methanesulfonate salt]
γ-secretase-dependent processing of C100-Flag into AICD-Flag or Aβ (1 μM C100-Flag, 37 °C, 4 h): inhibited
inhibitory effect on γ-secretase at high substrate concentration (4 μM APP-C100 compared to 1 μM): greatly reduced inhibitory effect
The potency of compound (in vitro C100 γ-secretase assay) (200 µM, compared with DHEC, estimated by densitometry): ++
pIC50 (IC50, Aβ40 and Aβ42 production (cell-free assay), 1 μM C100-Flag, 37 °C, 4 h, ELISA): ~4.00 and 4.00

Reference: article PMC4644980, “The FDA-approved natural product dihydroergocristine reduces the production of the Alzheimer’s disease amyloid-β peptides” (Scientific Reports, 2015)
